The text below walks through data of patent US20100227918A1, “STREPTOMYCES-DERIVED ANTIMICROBIAL COMPOUND AND METHOD OF USING SAME AGAINST ANTIBIOTIC-RESISTANT BACTERIA” (Taro Pharmaceuticals North America, Inc., priority 2006, published 2010).

Assay [1] has as its system some gram-positive bacteria (such as Staphylococcus and Streptococcus). The conditions noted are these: prior art, U.S. Pat. No. 3,966,913 and Japanese patents; cited from earlier work.
Assay [2] relates to penicillin-resistant Staphylococcus. To be noted: prior art; cited from earlier work.
Assay [3] concerns methicillin or vancomycin resistant gram-positive bacteria. To be noted: prior art; cited from earlier work.
Another assay concerns Staphylococcus aureus. Nature of the assay: antimicrobial paper disc assay (zone of inhibition). It is filed as cell-based. The conditions noted are these: HPLC-purified material (>99% purity) diluted to 0.1 μg/mL, known antibiotic controls, zone diameters of the classes (L1).
The test system of assay [4] is Methicillin-Resistant Staphylococcus aureus. The assay is described as above. It is filed as cell-based. To be noted: HPLC-purified material (>99% purity) diluted to 0.1 μg/mL, known antibiotic controls, zone diameters of the classes (L1).
In a further assay the test system is Candida albicans. The assay is described as above. It counts as cell-based. To be noted: known antibiotic controls, zone diameters of the classes (L1). The method, then:
(§1) The antimicrobial assay was performed as described in USP (See, Molecular Cloning, A Laboratory Manual). In brief, tested microorganism strains were grown in optimal culture media for growth at the optimal growth temperature for about 16 hours with shaking. Tested plates were prepared as follows. First, base agar layer-media were prepared as per USP. The media were then autoclaved, and cooled to 48° C. Once cooled to 48° C., 20 mL of the cooled media was poured onto a sterile polystyrene petri dish. This base agar layer was further allowed to solidify for 30 minutes (agar was added as a solidifying agent). Second, seed agar layers were prepared as per USP. The media were then autoclaved, and cooled to 48° C. Once cooled to 48° C., 1 mL of tested microorganism strain (already grown for 16 hours as described in the first step above) was added to the seed agar media. The seed agar media was gently swirled to mix. Five (5) mL of the seed agar media was pipetted on top of the base agar layer. Care was taken to avoid air bubbles. This seed agar media was allowed to cool for about 15 minutes at room temperature. Plates were stored at 4° C. until needed.
(§2) Ten (10) μl of each of the concentrated supernatants (described above) were pipetted onto a sterile filter paper disc. The sterile filter paper discs were dried in air for approximately 5 minutes. The sterile filter paper discs were carefully applied onto the surface of the plates (prepared as described above). Plates holding sterile filter discs were incubated either at 37° C. (for Micrococcus luteus, E. coli, and Pseudomonas aeriginosa) or at 30° C. (for Candida albicans) for a timer period of 24 hours. Negative controls included liquid culture media. Positive controls included known antimicrobial compounds such as vancomycin (against gram-positive bacteria), tetracycline (against gram-positive/gram-negative bacteria), and amphotericin B (against yeast/fungi).
(§3) Antimicrobial Assays: 10 μl of the 10-fold concentrated supernatants from each of the six (6) isolated colony was assayed for their antimicrobial activity against the twelve (12) microorganisms as listed above. The antimicrobial assay used in the tertiary screening was similar to that used in the secondary screening. In brief, tested microorganism strains were grown in optimal culture media for growth at the optimal growth temperature for about 16 hours with shaking. Tested plates were prepared as follows. First, base agar layer-media were prepared as per USP. The media were then autoclaved, and cooled to 48° C. Once cooled to 48° C., 20 mL of the cooled media was poured onto a sterile polystyrene petri dish. This base agar layer was further allowed to solidify for 30 minutes (agar was added as a solidifying agent). Second, seed agar layers were prepared as per USP. The media were then autoclaved, and cooled to 48° C. Once cooled to 48° C., 1 mL of tested microorganism strain (already grown for 16 hours as described in the first step above) was added to the seed agar media. The seed agar media was gently swirled to mix. Five (5) mL of the seed agar media was pipetted on top of the base agar layer. Care was taken to avoid air bubbles. This seed agar media was allowed to cool for about 15 minutes at room temperature. Plates were stored at 4° C. until needed.
(§4) Ten (10) μl of each of the concentrated supernatants were pipetted onto a sterile filter paper disc. The sterile filter paper discs were dried in air for approximately 5 minutes. The sterile filter paper discs were carefully applied onto the surface of the plates. Plates holding sterile filter discs were incubated either at 37° C. (for Staphylococcus aureus, MRSA, VRSA, Enterococcus faecilis, VRE, Micrococcus luteus, E. coli, Serratia marcesens and Pseudomonas aeriginosa) or at 30° C. (for Candida albicans) for a time period of 24 hours. Negative controls included liquid culture media.

The test system of a further assay is E. coli. Described as above. It counts as cell-based. To be noted: known antibiotic controls, zone diameters of the classes (L1). The method, then: as §1, §2, §3, §4
Another assay concerns Pseudomonas aeriginosa. The description is as above. It is filed as cell-based. To be noted: known antibiotic controls, zone diameters of the classes (L1). As to the method: as §1, §2, §3, §4
For the next assay, the system named is Enterococcus faecilis. Described as above. It is filed as cell-based. To be noted: HPLC-purified material (>99% purity) diluted to 0.1 μg/mL, known antibiotic controls, zone diameters of the classes (L1). The method, then: as §3
as §4, with “media. Positive controls included known antimicrobial compounds such as vancomycin (against gram-positive bacteria), tetracycline (against gram-positive/gram-negative bacteria), and amphotericin B (against yeast/fungi).” for “media.”
(§5) In general, a zone of inhibition visualized as having a diameter of about 7-10 mm is classified as “+”; a diameter of about 11-14 mm is “++”; a diameter of about 15-18 mm is “+++”; a diameter of about 19-22 mm is “++++”, and a diameter of greater than 23 mm is classified as “+++++”.
(§6) The HPLC-purified material was diluted with sterile distilled water to a concentration of 0.1 μg/mL. The diluted HPLC-purified material was assayed for antimicrobial activity using the antimicrobial assay as described above. The diluted HPLC-purified material was assayed for its antimicrobial activity against ten (10) microorganisms; namely, 1) Staphylococcus aureus; 2) methicillin-resistant Staphylococcus aureus; 3) vancomycin-resistant Staphylococcus aureus; 4) Enterococcus faecilis; 5) vancomycin-resistant Enterococcus faecilis; 6) Mycobacterium smegmatis; 7) E. coli; 8) Pseudomonas aeriginosa; 9) Serratia marcesens; and 10) Candida albicans.

The test system of a further assay is Mycobacterium smegmatis. The description is as above. To be noted: HPLC-purified material (>99% purity) diluted to 0.1 μg/mL, known antibiotic controls, zone diameters of the classes (L1). It is filed as cell-based. The method, then:
as §3
as §4, with “media. Positive controls included known antimicrobial compounds such as vancomycin (against gram-positive bacteria), tetracycline (against gram-positive/gram-negative bacteria), and amphotericin B (against yeast/fungi).” for “media.”
as §5, §6

The next assay relates to Serratia marcesens. Described as above. It counts as cell-based. To be noted: known antibiotic controls, zone diameters of the classes (L1). As to the method: as §3
as §4, with “media. Positive controls included known antimicrobial compounds such as vancomycin (against gram-positive bacteria), tetracycline (against gram-positive/gram-negative bacteria), and amphotericin B (against yeast/fungi).” for “media.”
as §5, §6

Assay [5] relates to Vancomycin-Resistant Enterococcus faecilis. Described as above. It counts as cell-based. To be noted: HPLC-purified material (>99% purity) diluted to 0.1 μg/mL, zone diameters of the classes (L1). As to the method:
as §3
as §4, with “media. Positive controls included known antimicrobial compounds such as vancomycin (against gram-positive bacteria), tetracycline (against gram-positive/gram-negative bacteria), and amphotericin B (against yeast/fungi).” for “media.”
as §5, §6

Assay [6] has as its system Vancomycin-Resistant Staphylococcus aureus. The description is as above. It is filed as cell-based. To be noted: HPLC-purified material (>99% purity) diluted to 0.1 μg/mL, zone diameters of the classes (L1). As to the method:
as §3
as §4, with “media. Positive controls included known antimicrobial compounds such as vancomycin (against gram-positive bacteria), tetracycline (against gram-positive/gram-negative bacteria), and amphotericin B (against yeast/fungi).” for “media.”
as §5, §6

The subject of a further assay is Mycobacteria smegmatis. To be noted: Journal of Antibiotics 29(7), 756-8; cited from earlier work.
Setting [7] is: HPLC-purified material (>99% purity) diluted to 0.1 μg/mL, paper disc assay.
[8] abbreviates: tertiary screening, 10 μl of 10-fold concentrated supernatant on paper disc, 37° C., 24 hours.

`CC1OC2CC(=O)OC2C2=C1C(=O)c1c(ccc(C3CC(N(C)C)C(O)C(C)O3)c1O)C2=O` (stereo not shown) [Lactoquinomycin A]: the “antimicrobial activity against some gram-positive bacteria (such as Staphylococcus and Streptococcus)” value in [1] is given as “exert an antimicrobial activity”. Besides, the “antimicrobial activity against certain penicillin-resistant Staphylococcus” value in assay [2] is “exert an antimicrobial activity”. Also, the “antimicrobial activity against methicillin or vancomycin resistant gram-positive bacteria” value in assay [3] is “no antimicrobial activity”.
Take `CC1OC2CC(=O)OC2C2=C1C(=O)c1c(ccc(C3CC(N(C)C)C(O)C(C)O3)c1O)C2=O` [Purified Lactoquinomycin, 2H-Furo[3,2-b]naphtho[2,3-d]pyran-2,6,11-trione,3,3a,5,11b-tetrahydro-7-hydroxy-5-methyl-8-[2,3,6-trideoxy-3-(dimethylamino)-β-D-arabino-hexopyranosyl]-,(3aR,5R,11bR)]: in the assay with Staphylococcus aureus, the “Antimicrobial Activity (zone of inhibition), Staphylococcus aureus” value was “+++++”. The “Antimicrobial Activity (zone of inhibition), Methicillin-Resistant Staphylococcus aureus” value in assay [4] was “+++++”. Besides, the “Antimicrobial Activity (zone of inhibition), Candida albicans” value in the assay with Candida albicans (setting [7]) was “−”. In addition, in the assay with E. coli (setting [7]), the “Antimicrobial Activity (zone of inhibition), E. coli” value is recorded as “−”. Besides, in the assay with Pseudomonas aeriginosa (setting [7]), the “Antimicrobial Activity (zone of inhibition), Pseudomonas aeriginosa” value is listed as “−”. The “Antimicrobial Activity (zone of inhibition), Enterococcus faecilis” value in the assay on Enterococcus faecilis is reported as “+++”. Further, the “Antimicrobial Activity (zone of inhibition), Mycobacterium smegmatis” value in the assay with Mycobacterium smegmatis is given as “+++++”. Besides, the “Antimicrobial Activity (zone of inhibition), Serratia marcesens” value in the assay with Serratia marcesens (setting [7]) was “−”. Also, in [5], the “Antimicrobial Activity (zone of inhibition), Vancomycin-Resistant Enterococcus faecilis” value is “+++”. Also, in assay [6], the “Antimicrobial Activity (zone of inhibition), Vancomycin-Resistant Staphylococcus aureus” value is “+++++”. The “antimicrobial activity against mycobacteria (i.e. Mycobacteria smegmatis)” value in the assay on Mycobacteria smegmatis was “no antimicrobial activity”.
`C[C@@H]1[C@H](O)[C@@H](C)/C=C/C=C/C=C/C=C/C=C/C=C/C=C/[C@H](O[C@@H]2O[C@H](C)[C@@H](O)[C@H](N)[C@@H]2O)C[C@@H]2O[C@](O)(C[C@@H](O)C[C@@H](O)[C@H](O)CC[C@@H](O)C[C@@H](O)CC(=O)O[C@H]1C)C[C@H](O)[C@H]2C(=O)O` [amphotericin B]: the “Antimicrobial Activity (zone of inhibition), Candida albicans” value is reported as “amphotericin B (+++++)” in the assay on Candida albicans (setting [7]) and “amphotericin B (+++++)” in the assay on Candida albicans (tertiary screening, 10 μl of 10-fold concentrated supernatant on paper disc, 30° C., 24 hours).
For the compound `CN(C)[C@@H]1C(O)=C(C(N)=O)C(=O)[C@@]2(O)C(O)=C3C(=O)c4c(O)cccc4[C@@](C)(O)[C@H]3C[C@@H]12` [tetracycline], the “Antimicrobial Activity (zone of inhibition), E. coli” value with E. coli (setting [7]) and in the assay on E. coli (setting [8]) was “tetracycline (+++++)” in each case.
As to gentamicin, the “Antimicrobial Activity (zone of inhibition), Pseudomonas aeriginosa” value with Pseudomonas aeriginosa (setting [7]) and with Pseudomonas aeriginosa (setting [8]) was “gentamicin (+++++)” throughout. Also, the “Antimicrobial Activity (zone of inhibition), Serratia marcesens” value in the assay on Serratia marcesens (setting [7]) and in the assay with Serratia marcesens (setting [8]) was “gentamicin (+++++)” throughout.
